Results on 23 compounds are retold here after publication PMC12098659 (Scientific Reports, 2025).

As a reminder, the IC50 is the concentration at which inhibition is half-maximal. Low values mean greater potency in that assay, high ones weaker potency in that assay. What is called Ki is a measure of affinity in units of concentration, obtained from inhibition or displacement. For orientation: inhibition means the share of the control response that was lost under treatment. A lower inhibition goes with little suppression.

One experiment deals with T1, α-glucosidase (Saccharomyces cerevisiae, UniProt P53341). Briefly: α-Glucosidase inhibition assay. In kind it is biochemical.
T1 sequence (P53341 whole entry): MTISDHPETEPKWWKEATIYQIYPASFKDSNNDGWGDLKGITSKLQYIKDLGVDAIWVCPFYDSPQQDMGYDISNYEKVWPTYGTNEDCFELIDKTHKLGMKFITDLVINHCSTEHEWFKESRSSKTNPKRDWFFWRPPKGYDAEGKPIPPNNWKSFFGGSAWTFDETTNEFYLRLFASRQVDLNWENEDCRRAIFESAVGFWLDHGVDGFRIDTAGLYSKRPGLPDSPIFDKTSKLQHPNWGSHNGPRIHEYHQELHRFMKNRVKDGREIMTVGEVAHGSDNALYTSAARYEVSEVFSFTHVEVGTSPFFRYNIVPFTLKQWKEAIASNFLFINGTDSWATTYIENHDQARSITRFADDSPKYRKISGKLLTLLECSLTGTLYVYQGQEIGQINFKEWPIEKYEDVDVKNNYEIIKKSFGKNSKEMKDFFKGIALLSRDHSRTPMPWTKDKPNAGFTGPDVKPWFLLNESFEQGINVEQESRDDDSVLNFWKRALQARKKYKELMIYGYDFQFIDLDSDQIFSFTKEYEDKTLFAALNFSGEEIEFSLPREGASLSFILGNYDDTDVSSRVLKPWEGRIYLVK
Conditions: not given
Turning to `COc1ccc(-c2c(N)c(-c3ccc(C)cc3)c(C#N)c3nc(-c4ccccc4)nn23)cc1` [Compound 15i, 6-Amino-5-(4-methoxyphenyl)-2-phenyl-7-(p-tolyl)-^1,2,4triazolo[1,5-a]pyridine-8-carbonitrile], the IC50 came to 8.43 ± 0.25 µM.
The same measure, in the same setting: next, `N#Cc1c(-c2ccccc2)c(N)c(-c2ccccc2)n2nc(-c3ccccc3)nc12` [Compound 15a, 6-Amino-2,5,7-triphenyl-^1,2,4triazolo[1,5-a]pyridine-8-carbonitrile]: 20.32 ± 0.11 µM.
Same read-out and setting: to `N#Cc1c(-c2ccc(Cl)cc2)c(N)c(-c2ccc(Cl)cc2)n2nc(-c3ccccc3)nc12` [Compound 15s, 6-Amino-5,7-bis(4-chlorophenyl)-2-phenyl-^1,2,4triazolo[1,5-a]pyridine-8-carbonitrile] belongs 31.49 ± 0.08 µM.
The same measure, in the same setting: next, `COc1ccc(-c2c(N)c(-c3ccccc3)n3nc(-c4ccccc4)nc3c2C#N)cc1` [Compound 15m, 6-Amino-7-(4-methoxyphenyl)-2,5-diphenyl-^1,2,4triazolo[1,5-a]pyridine-8-carbonitrile]: 9.18 ± 0.12 µM.
Take `N#Cc1c(-c2ccccc2)c(N)c(-c2ccccc2)n2nc(-c3ccc(Cl)cc3)nc12` [Compound 15v, 6-Amino-2-(4-chlorophenyl)-5,7-diphenyl-^1,2,4triazolo[1,5-a]pyridine-8-carbonitrile]: the half-inhibitory concentration (IC50) stood at 25.13 ± 0.24 µM. Against the preceding compound, the IC50 is about 2.7-fold higher.
The same measure, in the same setting: to `N#Cc1c(-c2ccc(Cl)cc2)c(N)c(-c2cccs2)n2nc(-c3ccccc3)nc12` [Compound 15t, 6-Amino-7-(4-chlorophenyl)-2-phenyl-5-(thiophen-2-yl)-^1,2,4triazolo[1,5-a]pyridine-8-carbonitrile] belongs 75.63 ± 0.44 µM; to `N#Cc1c(-c2ccc(Cl)cc2)c(N)c(-c2ccccc2)n2nc(-c3ccccc3)nc12` [Compound 15q, 6-Amino-7-(4-chlorophenyl)-2,5-diphenyl-^1,2,4triazolo[1,5-a]pyridine-8-carbonitrile], 38.18 ± 0.14 µM.
Regarding `N#Cc1c(-c2ccccc2)c(N)c(-c2ccc(Cl)cc2)n2nc(-c3ccccc3)nc12` [Compound 15c, 6-Amino-5-(4-chlorophenyl)-2,7-diphenyl-^1,2,4triazolo[1,5-a]pyridine-8-carbonitrile], the IC50 came out at 9.69 ± 0.09 µM. This IC50 is about 3.9-fold lower than that of the compound before.
With `COc1ccc(-c2c(N)c(-c3ccc(Cl)cc3)n3nc(-c4ccccc4)nc3c2C#N)cc1` [Compound 15o, 6-Amino-5-(4-chlorophenyl)-7-(4-methoxyphenyl)-2-phenyl-^1,2,4triazolo[1,5-a]pyridine-8-carbonitrile], 7.64 ± 0.13 µM corresponded to half-maximal inhibition (IC50).
On the same count and under the same terms, next, `COc1ccc(-c2c(N)c(-c3ccc(OC)cc3)n3nc(-c4ccccc4)nc3c2C#N)cc1` [Compound 15n, 6-Amino-5,7-bis(4-methoxyphenyl)-2-phenyl-^1,2,4triazolo[1,5-a]pyridine-8-carbonitrile]: 22.31 ± 0.08 µM.
In turn, `N#Cc1c(-c2ccccc2)c(N)c(-c2cccc(Cl)c2)n2nc(-c3ccccc3)nc12` [Compound 15d, 6-Amino-5-(3-chlorophenyl)-2,7-diphenyl-^1,2,4triazolo[1,5-a]pyridine-8-carbonitrile] returned an IC50 of 45.54 ± 0.25 µM.
Still for that read-out and setting: to `N#Cc1c(-c2ccccc2)c(N)c(-c2ccc(Br)cc2)n2nc(-c3ccccc3)nc12` [Compound 15f, 6-Amino-5-(4-bromophenyl)-2,7-diphenyl-^1,2,4triazolo[1,5-a]pyridine-8-carbonitrile] belongs 32 ± 0.32 µM; to `Cc1ccc(-c2c(N)c(-c3cccs3)n3nc(-c4ccccc4)nc3c2C#N)cc1` [Compound 15l, 6-Amino-2-phenyl-5-(thiophen-2-yl)-7-(p-tolyl)-^1,2,4triazolo[1,5-a]pyridine-8-carbonitrile], 21.49 ± 0.09 µM.
Still for that read-out and setting: next, `COc1ccc(-c2c(N)c(-c3cccs3)n3nc(-c4ccccc4)nc3c2C#N)cc1` [Compound 15p, 6-Amino-7-(4-methoxyphenyl)-2-phenyl-5-(thiophen-2-yl)-^1,2,4triazolo[1,5-a]pyridine-8-carbonitrile]: 36.33 ± 0.09 µM.
The same measure, in the same setting: to `Cc1ccc(-c2c(N)c(-c3ccccc3)n3nc(-c4ccccc4)nc3c2C#N)cc1` [Compound 15h, 6-Amino-2,5-diphenyl-7-(p-tolyl)-^1,2,4triazolo[1,5-a]pyridine-8-carbonitrile] belongs 14.4 ± 0.43 µM; to `COc1ccc(-c2c(N)c(-c3ccccc3)c(C#N)c3nc(-c4ccccc4)nn23)cc1` [Compound 15b, 6-Amino-5-(4-methoxyphenyl)-2,7-diphenyl-^1,2,4triazolo[1,5-a]pyridine-8-carbonitrile], 25.5 ± 0.23 µM; to `COc1ccc(-c2c(N)c(-c3ccc(Cl)cc3)c(C#N)c3nc(-c4ccccc4)nn23)cc1` [Compound 15r, 6-Amino-7-(4-chlorophenyl)-5-(4-methoxyphenyl)-2-phenyl-^1,2,4triazolo[1,5-a]pyridine-8-carbonitrile], 49.96 ± 0.11 µM.
On to `Cc1ccc(-c2c(N)c(-c3ccc(Br)cc3)n3nc(-c4ccccc4)nc3c2C#N)cc1` [Compound 15k, 6-Amino-5-(4-bromophenyl)-2-phenyl-7-(p-tolyl)-^1,2,4triazolo[1,5-a]pyridine-8-carbonitrile], for which half-maximal inhibition (IC50) required 29.89 ± 0.17 µM.
The same measure, in the same setting: to `COc1ccc(-c2nc3c(C#N)c(-c4ccccc4)c(N)c(-c4ccccc4)n3n2)cc1` [Compound 15u, 6-Amino-2-(4-methoxyphenyl)-5,7-diphenyl-^1,2,4triazolo[1,5-a]pyridine-8-carbonitrile] belongs 14.8 ± 0.22 µM; to `N#Cc1c(-c2ccccc2)c(N)c(-c2ccccc2Cl)n2nc(-c3ccccc3)nc12` [Compound 15e, 6-Amino-5-(2-chlorophenyl)-2,7-diphenyl-^1,2,4triazolo[1,5-a]pyridine-8-carbonitrile], 60.64 ± 0.18 µM.
The compound `N#Cc1c(-c2ccccc2)c(N)c(-c2cccs2)n2nc(-c3ccccc3)nc12` [Compound 15g, 6-Amino-2,7-diphenyl-5-(thiophen-2-yl)-^1,2,4triazolo[1,5-a]pyridine-8-carbonitrile] showed an IC50 of 45.73 ± 0.29 µM. The IC50 values of the last two compounds are within 1.5-fold of each other.
The same measure, in the same setting: to `Cc1ccc(-c2c(N)c(-c3ccc(Cl)cc3)n3nc(-c4ccccc4)nc3c2C#N)cc1` [Compound 15j, 6-Amino-5-(4-chlorophenyl)-2-phenyl-7-(p-tolyl)-^1,2,4triazolo[1,5-a]pyridine-8-carbonitrile] belongs 6.6 ± 0.09 µM.

The target of another experiment is T1, α-glucosidase. In words: Enzyme kinetic study. In kind it is biochemical.
Conditions: not given
Consider `Cc1ccc(-c2c(N)c(-c3ccc(Cl)cc3)n3nc(-c4ccccc4)nc3c2C#N)cc1` [Compound 15j, 6-Amino-5-(4-chlorophenyl)-2-phenyl-7-(p-tolyl)-^1,2,4triazolo[1,5-a]pyridine-8-carbonitrile], for which the Ki stood at 6.6 µM.

Still in this experiment, the particulars now being: Lineweaver-Burk plot: Km increases, Vmax unchanged.
Consider `Cc1ccc(-c2c(N)c(-c3ccc(Cl)cc3)n3nc(-c4ccccc4)nc3c2C#N)cc1` [Compound 15j, 6-Amino-5-(4-chlorophenyl)-2-phenyl-7-(p-tolyl)-^1,2,4triazolo[1,5-a]pyridine-8-carbonitrile], for which the α-glucosidase inhibition mode entry was “competitive”.

Still in this experiment, the particulars now being: enzyme treated with 6.6 µM compound 15j; untreated 62.5.
Turning to `Cc1ccc(-c2c(N)c(-c3ccc(Cl)cc3)n3nc(-c4ccccc4)nc3c2C#N)cc1` [Compound 15j, 6-Amino-5-(4-chlorophenyl)-2-phenyl-7-(p-tolyl)-^1,2,4triazolo[1,5-a]pyridine-8-carbonitrile], the “Maximum velocity (Vm) of the treated enzyme” value is recorded as 62.5 (nmol min^− 1).

Another experiment relates to α-amylase.
Test: not given
The conditions noted are these: 100 µM.
As for `C[C@H]1O[C@H](O[C@H]2[C@H](O)[C@@H](O)[C@@H](O[C@H]3[C@H](O)[C@@H](O)C(O)O[C@@H]3CO)O[C@@H]2CO)[C@H](O)[C@@H](O)[C@@H]1N[C@H]1C=C(CO)[C@@H](O)[C@H](O)[C@H]1O` (some centres unmarked) [Acarbose], the inhibition worked out at 50.1 ± 0.5%.
